Test results reported in PubChem BioAssay AID2060887 (Molecular Pharmacology Branch, DTP, NCI, 2025).

Test system: 782815-120-R-J1-PDC complex spheroid viability
Experiment: Anticancer human tumor 782815-120-R-J1-PDC patient-derived colon adenocarcinoma cell line growth inhibition [RAS]
Conditions: for IC50: curve of first compound; for viability, T/C: stronger effect = lower value
Method in brief: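 Agents were tested in combination matrices in half-log decrements from a top concentration at or near clinical Cmax (10 microM if undetermined). Targets were multi-cell spheroids of tumour lines plus HUVEC and MSC stromal cells.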
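Note: spheroids exposed to compounds for 7 days before reading.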
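Throughout, for viability, T/C: 100% = DMSO vehicle control viability.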

SMILES: C=CC(=O)N1CCN(c2nc(OCC3CCCN3C)nc3c(F)c(-c4nc(N)cc(C)c4C(F)(F)F)c(Cl)cc23)C(C)C1 (configuration not stated) + C#Cc1c(F)ccc2cc(O)cc(-c3ncc4c(N5CC6CCC(C5)N6)nc(OCC56CCCN5CC(F)C6)nc4c3F)c12
- IC50 (second compound 0.0316 µM): > 1000 nM
- IC50 (second compound 0.1 µM): > 1000 nM
- IC50 (second compound 0.316 µM): > 1000 nM
- IC50 (second compound 1 µM): > 1000 nM
- IC50 (second compound 3.16 µM): > 1000 nM
- IC50 (second compound 10 µM): > 1000 nM
- viability, T/C (second compound 0.0316 µM, first compound 0.00316 µM): 98.9%
- viability, T/C (second compound 0.0316 µM, first compound 0.01 µM): 86.9%
- viability, T/C (second compound 0.0316 µM, first compound 0.0316 µM): 103%
- viability, T/C (second compound 0.0316 µM, first compound 0.1 µM): 92.5%
- viability, T/C (second compound 0.0316 µM, first compound 0.316 µM): 96.9%
- viability, T/C (second compound 0.0316 µM, first compound 1 µM): 97%
- viability, T/C (second compound 0.1 µM, first compound 0.00316 µM): 97.3%
- viability, T/C (second compound 0.1 µM, first compound 0.01 µM): 93.1%
- viability, T/C (second compound 0.1 µM, first compound 0.0316 µM): 97.5%
- viability, T/C (second compound 0.1 µM, first compound 0.1 µM): 94%
- viability, T/C (second compound 0.1 µM, first compound 0.316 µM): 97%
- viability, T/C (second compound 0.1 µM, first compound 1 µM): 101%
- viability, T/C (second compound 0.316 µM, first compound 0.00316 µM): 92.6%
- viability, T/C (second compound 0.316 µM, first compound 0.01 µM): 94.7%
- viability, T/C (second compound 0.316 µM, first compound 0.0316 µM): 89.2%
- viability, T/C (second compound 0.316 µM, first compound 0.1 µM): 91.8%
- viability, T/C (second compound 0.316 µM, first compound 0.316 µM): 98.4%
- viability, T/C (second compound 0.316 µM, first compound 1 µM): 84.4%
- viability, T/C (second compound 1 µM, first compound 0.00316 µM): 95.5%
- viability, T/C (second compound 1 µM, first compound 0.01 µM): 94.6%
- viability, T/C (second compound 1 µM, first compound 0.0316 µM): 94%
- viability, T/C (second compound 1 µM, first compound 0.1 µM): 99.2%
- viability, T/C (second compound 1 µM, first compound 0.316 µM): 101%
- viability, T/C (second compound 1 µM, first compound 1 µM): 98.3%
- viability, T/C (second compound 3.16 µM, first compound 0.00316 µM): 97.3%
- viability, T/C (second compound 3.16 µM, first compound 0.01 µM): 91.7%
- viability, T/C (second compound 3.16 µM, first compound 0.0316 µM): 95.9%
- viability, T/C (second compound 3.16 µM, first compound 0.1 µM): 105%
- viability, T/C (second compound 3.16 µM, first compound 0.316 µM): 101%
- viability, T/C (second compound 3.16 µM, first compound 1 µM): 90.5%
- viability, T/C (second compound 10 µM, first compound 0.00316 µM): 106%
- viability, T/C (second compound 10 µM, first compound 0.01 µM): 104%
- viability, T/C (second compound 10 µM, first compound 0.0316 µM): 93.6%
- viability, T/C (second compound 10 µM, first compound 0.1 µM): 99.6%
- viability, T/C (second compound 10 µM, first compound 0.316 µM): 104%
- viability, T/C (second compound 10 µM, first compound 1 µM): 91.1%
